{"source": "patent US10144742B2", "about": "(Millennium Pharmaceuticals, Inc., priority 2014, dated 2018)", "key": {"[1]": {"target": "hNAMPT protein (Homo sapiens (Human), UniProt P43490)", "sequence (P43490 whole entry)": "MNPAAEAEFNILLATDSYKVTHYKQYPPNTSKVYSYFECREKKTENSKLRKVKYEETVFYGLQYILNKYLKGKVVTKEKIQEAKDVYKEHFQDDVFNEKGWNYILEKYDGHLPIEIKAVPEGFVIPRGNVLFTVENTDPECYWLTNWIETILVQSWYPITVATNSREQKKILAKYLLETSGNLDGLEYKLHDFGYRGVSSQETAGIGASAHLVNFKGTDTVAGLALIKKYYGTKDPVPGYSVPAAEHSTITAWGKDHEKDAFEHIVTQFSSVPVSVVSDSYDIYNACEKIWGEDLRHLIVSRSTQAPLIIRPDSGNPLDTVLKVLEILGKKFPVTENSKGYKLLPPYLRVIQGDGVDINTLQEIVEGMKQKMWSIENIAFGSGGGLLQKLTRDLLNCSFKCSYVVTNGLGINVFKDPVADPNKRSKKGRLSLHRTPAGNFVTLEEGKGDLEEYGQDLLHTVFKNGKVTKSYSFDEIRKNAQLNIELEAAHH", "assay": "NAMPT enzyme assay (TR-FRET/HTRF, BodiPY ligand, anti 6His-Tb)", "assay_type": "binding", "conditions": "for IC50: NAMPT IC50 range class, read-out: IC50; for inhibition at 1 µM: read-out: Percent Inhibition", "in_short": "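Compound or DMSO was incubated for 1 h at room temperature, protected from light, with BodiPY ligand and hNAMPT labelled by terbium anti-6His antibody. The 520 nm to 486 nm emission ratio after 320 nm excitation gave inhibition versus vehicle, from which concentration-response curves yielded IC50.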"}, "[2]": {"tested_on": "PC3 cells", "assay": "PC3 growth inhibition (Cell-titer glo, 72 hours)", "assay_type": "cell-based", "conditions": "Homo sapiens, PC-3, PC3 cells, 72 hours, Cell-titer glo, read-out: Percent Inhibition (PC3 growth inhibition); for inhibition at 1 µM: compound concentration 1 μM; for inhibition at 1.667 µM: compound concentration 1.667 μM; for inhibition at 1.852 µM: compound concentration 1.852 μM", "in_short": "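Compounds in AIM serum-free medium were applied for 72 h at 37 °C, 5% CO2 to PC3 cells plated overnight from RPMI1640 culture. Luminescence after 10 min CellTiter-Glo, normalised to DMSO, gave % viability at 1 μM or 1.667 μM, or GI50/LD50.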"}}, "note": "Read-outs that look alike come from different tables or passages of the source."}
{"compound": "N#Cc1ccccc1-c1nc2ccc(C(=O)NCCCn3ccnc3)cc2nc1-c1ccccc1", "note": "[Compound I-54, 2-(2-cyanophenyl)-N-[3-(1H-imidazol-1-yl)propyl]-3-phenylquinoxaline-6-carboxamide]", "values": [{"measurement": "IC50", "setting": "[1]", "result": "500 to 1000", "unit": "nM"}, {"measurement": "inhibition at 1 µM", "setting": "[1]; compound concentration 1 μM", "result": 50, "unit": "%"}, {"measurement": "inhibition at 1 µM", "setting": "[2]", "result": -7, "unit": "%"}]}
{"compound": "COc1cccc(-c2nc3cc(C(=O)NCCCn4ccnc4)ccc3nc2N2CCOCC2)c1", "note": "[Compound I-55, N-[3-(1H-imidazol-1-yl)propyl]-3-(3-methoxyphenyl)-2-(morpholin-4-yl)quinoxaline-6-carboxamide]", "values": [{"measurement": "IC50", "setting": "[1]", "result": "< 100", "unit": "nM"}, {"measurement": "inhibition at 1 µM", "setting": "[1]; compound concentration 1 μM", "result": 102, "unit": "%"}, {"measurement": "inhibition at 1 µM", "setting": "[2]", "result": -7, "unit": "%"}]}
{"compound": "O=C(c1ccc2nc(-c3ccc(F)cc3)c(-c3ccc(F)cc3)nc2c1)N1CCn2ccnc2C1", "note": "[Compound I-56, [2,3-bis(4-fluorophenyl)quinoxalin-6-yl](5,6-dihydroimidazo[1,2-a]pyrazin-7(8H)-yl)methanone]", "values": [{"measurement": "IC50", "setting": "[1]", "result": "2000 to 10000", "unit": "nM"}, {"measurement": "inhibition at 1 µM", "setting": "[1]; compound concentration 1 μM", "result": 33, "unit": "%"}, {"measurement": "inhibition at 1 µM", "setting": "[2]", "result": 104, "unit": "%"}]}
{"compound": "Cc1nccn1CCCNC(=O)c1ccc2nc(-c3ccc(F)cc3)c(-c3ccc(F)cc3)nc2c1", "note": "[Compound I-57, 2,3-bis(4-fluorophenyl)-N-[3-(2-methyl-1H-imidazol-1-yl)propyl]quinoxaline-6-carboxamide]", "values": [{"measurement": "IC50", "setting": "[1]", "result": "< 100", "unit": "nM"}, {"measurement": "inhibition at 1 µM", "setting": "[1]; compound concentration 1 μM", "result": 96, "unit": "%"}, {"measurement": "inhibition at 1 µM", "setting": "[2]", "result": 45, "unit": "%"}]}
{"compound": "CN(C)c1nc2ccc(C(=O)NCCc3cncn3C)cc2nc1-c1ccc(F)cc1", "note": "[Compound I-58, 2-(dimethylamino)-3-(4-fluorophenyl)-N-[2-(1-methyl-1H-imidazol-5-yl)ethyl]quinoxaline-6-carboxamide]", "values": [{"measurement": "IC50", "setting": "[1]", "result": "500 to 1000", "unit": "nM"}, {"measurement": "inhibition at 1 µM", "setting": "[1]; compound concentration 1 μM", "result": 64, "unit": "%"}, {"measurement": "inhibition at 1.667 µM", "setting": "[2]", "result": 50, "unit": "%"}]}
{"compound": "COC1CN(c2nc3ccc(C(=O)NCCCn4ccnc4)cc3nc2-c2ccccc2)C1", "note": "[Compound I-59, N-[3-(1H-imidazol-1-yl)propyl]-2-(3-methoxyazetidin-1-yl)-3-phenylquinoxaline-6-carboxamide]", "values": [{"measurement": "IC50", "setting": "[1]", "result": "1000 to 2000", "unit": "nM"}, {"measurement": "inhibition at 1 µM", "setting": "[1]; compound concentration 1 μM", "result": 49, "unit": "%"}, {"measurement": "inhibition at 1 µM", "setting": "[2]", "result": -6, "unit": "%"}]}
{"compound": "O=C(NCCCn1ccnc1)c1ccc2nc(-c3ccsc3)c(-c3ccccc3)nc2c1", "note": "[Compound I-60, N-[3-(1H-imidazol-1-yl)propyl]-3-phenyl-2-(3-thienyl)quinoxaline-6-carboxamide]", "values": [{"measurement": "IC50", "setting": "[1]", "result": "500 to 1000", "unit": "nM"}, {"measurement": "inhibition at 1 µM", "setting": "[1]; compound concentration 1 μM", "result": 51, "unit": "%"}, {"measurement": "inhibition at 1 µM", "setting": "[2]", "result": -4, "unit": "%"}]}
{"compound": "O=C(NCCCn1ccnc1)c1ccc2nc(-c3cccc(OC(F)(F)F)c3)c(-c3ccccc3)nc2c1", "note": "[Compound I-61, N-[3-(1H-imidazol-1-yl)propyl]-3-phenyl-2-[3-(trifluoromethoxy)phenyl]quinoxaline-6-carboxamide]", "values": [{"measurement": "IC50", "setting": "[1]", "result": "100 to 500", "unit": "nM"}, {"measurement": "inhibition at 1 µM", "setting": "[1]; compound concentration 1 μM", "result": 75, "unit": "%"}, {"measurement": "inhibition at 1 µM", "setting": "[2]", "result": -7, "unit": "%"}]}
{"compound": "O=C(NCCCn1ccnc1)c1ccc2nc(NCc3ccccc3)c(-c3ccccc3)nc2c1", "note": "[Compound I-62, 2-(benzylamino)-N-[3-(1H-imidazol-1-yl)propyl]-3-phenylquinoxaline-6-carboxamide]", "values": [{"measurement": "IC50", "setting": "[1]", "result": "2000 to 10000", "unit": "nM"}, {"measurement": "inhibition at 1 µM", "setting": "[1]; compound concentration 1 μM", "result": 24, "unit": "%"}, {"measurement": "inhibition at 1 µM", "setting": "[2]", "result": -4, "unit": "%"}]}
{"compound": "CC(C)(C)OC(=O)NCc1ccc(-c2nc3cc(C(=O)NCCCn4ccnc4)ccc3nc2-c2ccccc2)cc1", "note": "[Compound I-63, tert-Butyl [4-(7-{[3-(1H-imidazol-1-yl)propyl]carbamoyl}-3-phenylquinoxalin-2-yl)benzyl]carbamate]", "values": [{"measurement": "IC50", "setting": "[1]", "result": "2000 to 10000", "unit": "nM"}, {"measurement": "inhibition at 1 µM", "setting": "[1]", "result": 17, "unit": "%"}, {"measurement": "inhibition at 1 µM", "setting": "[2]", "result": 25, "unit": "%"}]}
{"compound": "O=C(NCc1ccc2nccn2c1)c1ccc2nc(N3CCC(N4CCOCC4)CC3)c(-c3ccc(F)cc3)nc2c1", "note": "[Compound I-64, 3-(4-fluorophenyl)-N-(imidazo[1,2-a]pyridin-6-ylmethyl)-2-[4-(morpholin-4-yl)piperidin-1-yl]quinoxaline-6-carboxamide]", "values": [{"measurement": "IC50", "setting": "[1]", "result": "< 100", "unit": "nM"}, {"measurement": "inhibition at 1 µM", "setting": "[1]; compound concentration 1 μM", "result": 98, "unit": "%"}, {"measurement": "inhibition at 1.852 µM", "setting": "[2]", "result": 2, "unit": "%"}]}
{"compound": "O=C(NCCOc1cccnc1)c1ccc2nc(-c3ccc(F)cc3)c(-c3ccc(F)cc3)nc2c1", "note": "[Compound I-65, 2,3-bis(4-fluorophenyl)-N-[2-(pyridin-3-yloxy)ethyl]quinoxaline-6-carboxamide]", "values": [{"measurement": "IC50", "setting": "[1]", "result": "< 100", "unit": "nM"}, {"measurement": "inhibition at 1 µM", "setting": "[1]; compound concentration 1 μM", "result": 95, "unit": "%"}, {"measurement": "inhibition at 1.667 µM", "setting": "[2]", "result": 2, "unit": "%"}]}
{"compound": "CC(C)(C)OC(=O)N1CCN(C2CCN(c3nc4ccc(C(=O)NCCCn5ccnc5)cc4nc3-c3ccccc3)CC2)CC1", "note": "[Compound I-66, tert-butyl 4-[1-(6-{[3-(1H-imidazol-1-yl)propyl]carbamoyl}-3-phenylquinoxalin-2-yl)piperidin-4-yl]piperazine-1-carboxylate]", "values": [{"measurement": "IC50", "setting": "[1]", "result": "< 100", "unit": "nM"}, {"measurement": "inhibition at 1 µM", "setting": "[1]; compound concentration 1 μM", "result": 102, "unit": "%"}, {"measurement": "inhibition at 1 µM", "setting": "[2]", "result": -1, "unit": "%"}]}
{"compound": "COc1cccc(-c2nc3cc(C(=O)NCCc4cccnc4)ccc3nc2N2CCC(O)CC2)c1", "note": "[Compound I-67, 2-(4-hydroxypiperidin-1-yl)-3-(3-methoxyphenyl)-N-[2-(pyridin-3-yl)ethyl]quinoxaline-6-carboxamide]", "values": [{"measurement": "IC50", "setting": "[1]", "result": "< 100", "unit": "nM"}, {"measurement": "inhibition at 1 µM", "setting": "[1]; compound concentration 1 μM", "result": 96, "unit": "%"}, {"measurement": "inhibition at 1.667 µM", "setting": "[2]", "result": 2, "unit": "%"}]}
{"compound": "Cn1cc2c(n1)OCCN(C(=O)c1ccc3nc(-c4ccc(F)cc4)c(-c4ccc(F)cc4)nc3c1)C2", "note": "[Compound I-68, [2,3-bis(4-fluorophenyl)quinoxalin-6-yl](2-methyl-2,4,6,7-tetrahydro-5H-pyrazolo[4,3-f][1,4]oxazepin-5-yl)methanone]", "values": [{"measurement": "IC50", "setting": "[1]", "result": "2000 to 10000", "unit": "nM"}, {"measurement": "inhibition at 1 µM", "setting": "[1]; compound concentration 1 μM", "result": 16, "unit": "%"}, {"measurement": "inhibition at 1 µM", "setting": "[2]", "result": 101, "unit": "%"}]}
{"compound": "O=C(NCCCn1ccnc1)c1ccc2nc(-c3ccccc3)c(-c3ccc4nccn4c3)nc2c1", "note": "[Compound I-69, N-[3-(1H-imidazol-1-yl)propyl]-3-(imidazo[1,2-a]pyridin-6-yl)-2-phenylquinoxaline-6-carboxamide]", "values": [{"measurement": "IC50", "setting": "[1]", "result": "100 to 500", "unit": "nM"}, {"measurement": "inhibition at 1 µM", "setting": "[1]; compound concentration 1 μM", "result": 75, "unit": "%"}, {"measurement": "inhibition at 1 µM", "setting": "[2]", "result": 0, "unit": "%"}]}
{"compound": "COc1cccc(-c2nc3cc(C(=O)NCCCc4cccnc4)ccc3nc2N2CCC(N3CCOCC3)CC2)c1", "note": "[Compound I-70, 3-(3-methoxyphenyl)-2-[4-(morpholin-4-yl)piperidin-1-yl]-N-[3-(pyridin-3-yl)propyl]quinoxaline-6-carboxamide]", "values": [{"measurement": "IC50", "setting": "[1]", "result": "< 100", "unit": "nM"}, {"measurement": "inhibition at 1 µM", "setting": "[1]; compound concentration 1 μM", "result": "> 99", "unit": "%"}, {"measurement": "inhibition at 1.667 µM", "setting": "[2]", "result": 2, "unit": "%"}]}
{"compound": "O=C(CCCn1ccnc1)Nc1ccc2nc(-c3ccc(F)cc3)c(-c3ccc(F)cc3)nc2c1", "note": "[Compound I-72, N-[2,3-Bis(4-fluorophenyl)quinoxalin-6-yl]-4-(1H-imidazol-1-yl)butanamide]", "values": [{"measurement": "IC50", "setting": "[1]", "result": "1000 to 2000", "unit": "nM"}, {"measurement": "inhibition at 1 µM", "setting": "[1]; compound concentration 1 μM", "result": 46, "unit": "%"}, {"measurement": "inhibition at 1 µM", "setting": "[2]", "result": 2, "unit": "%"}]}
{"compound": "COc1cccc(-c2nc3cc(C(=O)NCCc4cccnc4)ccc3nc2Cl)c1", "note": "[Compound I-73, 2-Chloro-3-(3-methoxyphenyl)-N-[2-(pyridin-3-yl)ethyl]quinoxaline-6-carboxamide]", "values": [{"measurement": "IC50", "setting": "[1]", "result": "1000 to 2000", "unit": "nM"}, {"measurement": "inhibition at 1 µM", "setting": "[1]; compound concentration 1 μM", "result": 13, "unit": "%"}, {"measurement": "inhibition at 1.852 µM", "setting": "[2]", "result": "> 99", "unit": "%"}]}
{"compound": "CC(C)(C)OC(=O)NC1CCN(C2CCN(c3nc4ccc(C(=O)NCCCn5ccnc5)cc4nc3-c3ccccc3)CC2)CC1", "note": "[Compound I-74, tert-Butyl [1′-(6-{[3-(1H-imidazol-1-yl)propyl]carbamoyl}-3-phenylquinoxalin-2-yl)-1,4′-bipiperidin-4-yl]carbamate]", "values": [{"measurement": "IC50", "setting": "[1]", "result": "< 100", "unit": "nM"}, {"measurement": "inhibition at 1 µM", "setting": "[1]; compound concentration 1 μM", "result": 100, "unit": "%"}, {"measurement": "inhibition at 1 µM", "setting": "[2]", "result": -2, "unit": "%"}]}
{"compound": "O=C(c1ccc2nc(-c3ccc(F)cc3)c(-c3ccc(F)cc3)nc2c1)N1CCc2[nH]ccc2C1", "note": "[Compound I-75, [2,3-bis(4-fluorophenyl)quinoxalin-6-yl](1,4,6,7-tetrahydro-5H-pyrrolo[3,2-c]pyridin-5-yl)methanone]", "values": [{"measurement": "IC50", "setting": "[1]", "result": "2000 to 10000", "unit": "nM"}, {"measurement": "inhibition at 1 µM", "setting": "[1]; compound concentration 1 μM", "result": 16, "unit": "%"}, {"measurement": "inhibition at 1 µM", "setting": "[2]", "result": 96, "unit": "%"}]}
